This note sets out measurements from patent publication US20100240746A1, “STEREOISOMERS OF TRICYCLODECAN-9-YL-XANTHOGENATE” (LUMAVITA AG, priority 2007, published 2010).

What is called IC50 is the concentration that inhibits the measured activity by half. A lower IC50 goes with inhibition by little substance.

Each structure is given as a SMILES string. “Also recorded” adds a separate entry of the source.

Test [1] has as its target T1, B. cereus PC-PLC (phosphatidylcholine-specific phospholipase C) (Bacillus cereus, UniProt P09598).
T1 construct: purchased Invitrogen
Description: Inhibition of phosphatidylcholine-specific phospholipase C (Amplex Red PC-PLC assay kit). It is filed as biochemical. The note with it: 30 min at 37° C., 0.2 U/mL PC-PLC solution, triplicate. On the procedure:
The inhibitory activities of optically active potassium salts of (+)- and (−)-O-exo/C-exo-tricyclo [5.2.1.0^2,6]-dec-9-yl-xanthic acid 1A ((+)- and (−)-enantiomers 1A) against phosphatidylcholine-specific phospholipase C were evaluated, together with D609 and potassium salt of racemic O-exo/C-exo xanthic acid 1A (racemic 1A), using Amplex Red phosphatidylcholine-specific phospholipase C(PC-PLC) assay kit, which was obtained from Invitrogen (Calsbad, Calif.). D609 was obtained from Sigma Aldrich.
An Amplex Red stock solution (˜20 mM), a working reaction buffer, and a horseradish peroxidase stock solution (200 U/mL), a H2O2 working solution (20 mM), a choline oxidate stock solution (20 U/mL), an alkaline phosphatase stock solution (400 U/mL), and a B. cereus PC-PLC stock solution (10 U/mL) were prepared according to the instruction of the assay kit. The stock solution (100 mg/mL) for each test compound was also prepared by dissolving the compound in water 2 hr prior to the start of the experiment.
A working Amplex Red/HRP/lecithin solution was prepared by adding 200 μL of Amplex Red reagent stock solution, 100 μL of HRP stock solution, 200 μL of alkaline phosphatase stock solution, 100 μL of choline oxidase stock solution, and 78 μL of the lecithin solution to […] of the working reaction buffer. PC-PLC solution (0.2 U/mL) was prepared by diluting the PC-PLC stock solution with the working reaction buffer to the desired concentration.
The test compound (25 μL) at a serious of concentrations was pipetted into a 96 well plate. For uninhibited PC-PLC controls and non-PC-PLC controls, 25 μL of water was added. After the addition of 50 μL of the Amplex Red/HRP/lecithin working solution, the reaction was initiated by adding 25 μL of PC-PLC solution to each well. […] After incubated for 30 min at 37° C., the reactions were measured with a fluorescence microplate reader using excitation at 550 nm and emission detection at 590 nm. The fluorescent data obtained were corrected for background fluorescence by subtracting the values obtained from the non-PC-PLC controls.

In test [2] the test system is HPV-31-infected CIN612 9E keratinocytes. Description: Long-term study, effect on cell proliferation of CIN612 9E cells over 9 passages. It is filed as cell-based, human papilloma virus. On the procedure: HPV-31 infected cells (3×10^6) were dispensed into 14.5 cm dishes containing fresh E medium and 1×10^6 cells of mitomycin C-treated 3T3 fibroblast feeders. The dishes were incubated in a CO2 incubator under 5% CO2 at 37° C. in 100% humidity. Human A431 epithelial cancer cells were used as HPV-uninfected negative controls. After 6 hr incubation, the cell culture medium was removed and fresh E medium containing 0.85 g/L NaHCO3 and a test compound at concentrations of 10 and 3.3 μg/mL, or control (interferon γ at 200 IU/mL) were added. For each concentration, 4 dishes were prepared. The dishes were incubated at 37° C. in a CO2 incubator. The culture medium was replaced to new E medium containing each concentration of the test compound or control in every 72 hrs. After seven days, or when untreated cells became confluent, one dish of each group was harvested for DNA/RNA extraction, followed by Southern/Northern Blot analysis; and one dish was trypsinized, cell number were determined and cells were seeded in three new dishes, treated and cultured as described above. This procedure was repeated for 9 passages. During these passages, morphology of cells and cell density were monitored.
Effect on cell proliferation. Cell numbers in the dishes harvested were determined in a Neubauer hematocytometer. The multiplication factor was determined at every step of passage. The cell number of each culture at the end of the passage was divided by the number of seeded cells at the start of each passage. The end point was reached when keratinocytes treated with a test compound stopped growing. Stop of cell growth was defined as a multiplication factor of no greater than 1.

T1 sequence (P09598 39-283 limits assumed): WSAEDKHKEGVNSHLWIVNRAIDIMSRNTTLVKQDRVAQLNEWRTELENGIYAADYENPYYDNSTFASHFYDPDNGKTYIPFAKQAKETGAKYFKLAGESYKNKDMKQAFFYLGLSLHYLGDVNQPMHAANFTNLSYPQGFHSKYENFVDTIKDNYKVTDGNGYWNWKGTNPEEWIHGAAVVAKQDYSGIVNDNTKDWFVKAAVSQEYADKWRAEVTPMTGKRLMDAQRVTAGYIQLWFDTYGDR

`S=C(S)OC1CC2CC1C1CCCC21` (single isomer, unassigned; (-)) [(−)-Enantiomer 1A, (−)-O-exo/C-exo-tricyclo[5.2.1.0^2,6]-dec-9-yl-xanthic acid]: in test [1], inhibition was half-maximal at 15.9 µM (IC50). Besides, in test [2] (3.3 μg/mL), the growth result is “reduction of the growth rate; also recorded: the cells almost stopped growing after 9 passages”. Also, in test [2] (10 μg/mL), the cell proliferation result is “significant reduction of cell proliferation”. The multiplication factor in test [2] (10 μg/mL, first five passages) was 2-2.5.
